Results published in US12161649B2, “Inhibitors of EGFR and methods of use thereof” (DANA-FARBER CANCER INSTITUTE, INC., priority 2018, dated 2024).
Where two headings read alike, the source gives them in different places.

Key:
[1] = molecular target: T1, recombinant EGFR 790M/L858R kinase (Homo sapiens, UniProt P00533, L858R/T790M); experiment: HTRF-based EGFR biochemical assay
T1 construct: Constructs spanning residues 696-1022 of the human EGFR; GST (cleaved yes); made in house; host or cells: Sf9 insect cells
Protocol: EGFR biochemical assays are carried out using a homogeneous time-resolved fluorescence (HTRF) assay. The reaction mixtures contain biotin-Lck-peptide substrate, wild type, or mutant EGFR enzyme in reaction buffer. Enzyme concentrations are adjusted to accommodate varying kinase activity and ATP concentrations. Compounds of the present application are diluted into the assay mixture and IC50 values are determined using 12-point inhibition curves.
Constructs spanning residues 696-1022 of the human EGFR (including wild type and L858R, L858R/T790M, T790M, and T790M/V948R mutant sequences) were prepared in a GST-fusion format using the pTriEX system (Novagen) for expression in Sf9 insect cells essentially as described (Yun et al., PNAS 105, 2070-2075 (2008): Yun et al., Cancer Cell 11, 217-227 (2007)). EGFR kinase proteins were purified by glutathione-affinity chromatography followed by size-exclusion chromatography after cleavage with TEV or thrombin to remove the GST fusion partner following established procedures. (Yun 2008; Yun 2007).
EGFR biochemical assays were carried out using a homogeneous time-resolved fluorescence (HTRF) assay as described previously. The reaction mixtures contained 1 μM biotin-Lck-peptide substrate, wild type or mutant EGFR enzyme in reaction buffer (50 mM HEPES pH 7.1, 10 mM MgCl2, 0.01% BSA, 1 mM TCEP and 0.1 mM […]) at a final volume of 10 μL. Enzyme concentrations were adjusted to accommodate varying kinase activity and ATP concentrations (0.2-0.4 nM L858R/T790M; or 2-4 nM L858R, or 2-4 nM T790M, or 40 nM WT). All reactions were carried out at room temperature in white ProxiPlate™ 384-well Plus plates (PerkinElmer) and were quenched with 5 μL of 0.2 M EDTA at 60 min. Five μL per well of the detection reagent containing 2.5 ng PT66K (Cis-bio) and 0.05 μg SAXL (Prozyme) were added, and the plates were then incubated at room temperature for 1 hour and read with an EnVision plate reader. For IC50 determinations, compounds of the present application were diluted into assay mixture (final DMSO 0.5%), and IC50 values were determined by 12-point inhibition curves (from 50 to 0.000282 μM) in duplicate under the assay conditions as described above.

T790M/L858R Ba/F3 cells = molecular target: T2, T790M/L858R Ba/F3 cells (Homo sapiens, UniProt P00533, T790M/L858R, cells depend on it); experiment: Ba/F3 cell proliferation (MTS assay); assay type: cell-based, murine; details: antiproliferative activity
T2 construct: The constructs were shuttled into the retroviral vector JP1540 using the BD Creator® System (BD Biosciences)
Protocol: The EGFR mutant L858R, Del E746_A750, L858R/T790M, DelE746_A750/T790M, L858R/T790M/C797S and Del/T790M/C797S Ba/F3 cells were previously described (Zhou et al., Nature 462, (2009), 1070-1074). All cell lines were maintained in RPMI 1640 (Cellgro; Mediatech Inc., Herndon, CA) supplemented with 10% FBS 100 units/mL penicillin, 100 units/mL streptomycin, and 2 mM glutamine. L858R cells were maintained in ACL-4 media (Invitrogen, Carlsbad, CA) supplemented with 5% FBS, 100 units/mL penicillin, 100 units/mL streptomycin, and 2 mM glutamine. The EGFR 1941R mutation was introduced via site directed mutagenesis using the Quick Change Site-Directed Mutagenesis kit (Stratagene; La Jolla, CA) according to the manufacturer's instructions. All constructs were confirmed by DNA sequencing. The constructs were shuttled into the retroviral vector JP1540 using the BD Creator® System (BD Biosciences). Ba/F3 cells were infected with retrovirus and according to standard protocols, as described previously (Zhou 2009). Stable clones were obtained by selection in puromycin (2 μg/ml).
Growth and inhibition of growth was assessed by MTS assay and was performed according to previously established methods (Zhou 2009). The MTS assay is a colorimetric method for determining the number of viable cells that is based on the bioreduction of MTS by cells to a formazan product that is soluble in cell culture medium and can be detected spectrophotometrically. Ba/F3 cells of different EGFR genotypes were exposed to treatment and the number of cells used per experiment determined empirically and has been previously established (Zhou 2009). All experimental points were set up in six wells and all experiments were repeated at least three times. […] The curves were fitted using a non-linear regression model with a sigmoidal dose response.

[2] = absence of cetuximab, read-out: Ba/F3 cellular activity (EC50) T790M/L858R
[3] = read-out: Ba/F3 cellular activity (EC50) T790M/L858R + Cetuximab, presence of 1 μg/mL cetuximab

T2 sequence (P00533 whole entry T790M/L858R): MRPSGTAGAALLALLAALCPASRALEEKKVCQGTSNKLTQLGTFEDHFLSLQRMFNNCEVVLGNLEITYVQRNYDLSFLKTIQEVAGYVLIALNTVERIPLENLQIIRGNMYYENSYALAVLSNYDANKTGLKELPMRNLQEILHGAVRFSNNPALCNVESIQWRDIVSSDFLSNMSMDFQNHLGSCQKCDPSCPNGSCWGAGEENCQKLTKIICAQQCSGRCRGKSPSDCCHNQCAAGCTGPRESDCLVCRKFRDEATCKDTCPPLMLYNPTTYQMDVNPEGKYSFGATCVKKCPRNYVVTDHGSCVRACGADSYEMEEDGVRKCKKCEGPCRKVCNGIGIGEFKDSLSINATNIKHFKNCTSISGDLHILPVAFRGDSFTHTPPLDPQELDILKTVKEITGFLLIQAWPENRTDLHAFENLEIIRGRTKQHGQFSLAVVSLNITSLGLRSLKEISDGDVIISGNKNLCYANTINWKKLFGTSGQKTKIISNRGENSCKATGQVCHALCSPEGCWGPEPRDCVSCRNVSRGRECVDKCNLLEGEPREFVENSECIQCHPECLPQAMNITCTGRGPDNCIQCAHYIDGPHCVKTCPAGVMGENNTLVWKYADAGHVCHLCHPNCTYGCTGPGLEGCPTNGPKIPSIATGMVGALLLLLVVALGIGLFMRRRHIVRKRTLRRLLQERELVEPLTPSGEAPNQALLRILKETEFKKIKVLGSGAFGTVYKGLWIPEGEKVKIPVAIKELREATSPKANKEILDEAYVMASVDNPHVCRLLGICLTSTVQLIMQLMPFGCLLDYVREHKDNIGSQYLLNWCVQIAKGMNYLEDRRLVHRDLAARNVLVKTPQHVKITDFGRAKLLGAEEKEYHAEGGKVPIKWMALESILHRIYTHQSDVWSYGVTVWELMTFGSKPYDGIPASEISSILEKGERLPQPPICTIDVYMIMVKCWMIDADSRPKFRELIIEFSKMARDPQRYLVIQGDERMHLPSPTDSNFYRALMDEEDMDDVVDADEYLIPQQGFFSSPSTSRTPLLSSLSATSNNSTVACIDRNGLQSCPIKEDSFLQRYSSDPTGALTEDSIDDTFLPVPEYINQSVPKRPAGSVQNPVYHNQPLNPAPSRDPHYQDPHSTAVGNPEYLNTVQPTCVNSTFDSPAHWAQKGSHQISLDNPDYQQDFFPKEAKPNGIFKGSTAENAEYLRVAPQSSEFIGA
T1 sequence (P00533 696-1022 T790M/L858R): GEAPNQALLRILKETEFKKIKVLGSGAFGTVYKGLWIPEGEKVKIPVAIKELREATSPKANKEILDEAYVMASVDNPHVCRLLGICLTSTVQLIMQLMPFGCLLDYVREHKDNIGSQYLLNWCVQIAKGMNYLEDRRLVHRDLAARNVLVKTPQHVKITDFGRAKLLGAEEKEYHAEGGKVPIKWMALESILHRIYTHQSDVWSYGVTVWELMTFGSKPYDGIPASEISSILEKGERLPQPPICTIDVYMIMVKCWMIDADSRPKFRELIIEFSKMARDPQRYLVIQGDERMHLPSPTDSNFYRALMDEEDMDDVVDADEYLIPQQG

CN1CCN(c2ccc(C(=O)N[C@H]3CNc4ccc(F)cc4N(Cc4ccccc4)C3=O)cc2)CC1 [Compound I-1, (S)-N-(1-benzyl-8-fluoro-2-oxo-2,3,4,5-tetrahydro-1H-benzo[b][1,4]diazepin-3-yl)-4-(4-methylpiperazin-1-yl)benzamide]
IC50 [1]: > 750 nM
EC50 (T790M/L858R Ba/F3 cells; [2]): > 750 nM
EC50 (T790M/L858R Ba/F3 cells; [3]): > 750 nM

CN1CCN(c2ccc(NC(=O)N[C@H]3CNc4ccc(F)cc4N(Cc4ccccc4)C3=O)cc2)CC1 [Compound I-2, (S)-1-(1-benzyl-8-fluoro-2-oxo-2,3,4,5-tetrahydro-1H-benzo[b][1,4]diazepin-3-yl)-3-(4-(4-methylpiperazin-1-yl)phenyl)urea]
IC50 [1]: > 750 nM
EC50 (T790M/L858R Ba/F3 cells; [2]): > 750 nM
EC50 (T790M/L858R Ba/F3 cells; [3]): > 750 nM

O=C(Cc1ccc(N2CCOCC2)cc1)N[C@H]1CNc2ccc(F)cc2N(Cc2ccccc2)C1=O [Compound I-3, (S)-N-(1-benzyl-8-fluoro-2-oxo-2,3,4,5-tetrahydro-1H-benzo[b][1,4]diazepin-3-yl)-2-(4-morpholinophenyl)acetamide]
IC50 [1]: > 750 nM
EC50 (T790M/L858R Ba/F3 cells; [2]): > 750 nM
EC50 (T790M/L858R Ba/F3 cells; [3]): > 750 nM

CN1CCN(c2cccc(C(=O)N[C@H]3CNc4ccc(F)cc4N(Cc4ccccc4)C3=O)c2)CC1 [Compound I-4, (S)-N-(1-benzyl-8-fluoro-2-oxo-2,3,4,5-tetrahydro-1H-benzo[b][1,4]diazepin-3-yl)-3-(4-methylpiperazin-1-yl)benzamide]
IC50 [1]: > 750 nM
EC50 (T790M/L858R Ba/F3 cells; [2]): > 750 nM
EC50 (T790M/L858R Ba/F3 cells; [3]): > 750 nM

COc1cc(N2CCOCC2)ccc1C(=O)N[C@H]1CNc2ccc(F)cc2N(Cc2ccccc2)C1=O [Compound I-5, (S)-N-(1-benzyl-8-fluoro-2-oxo-2,3,4,5-tetrahydro-1H-benzo[b][1,4]diazepin-3-yl)-2-methoxy-4-morpholinobenzamide]
IC50 [1]: > 750 nM
EC50 (T790M/L858R Ba/F3 cells; [2]): > 750 nM
EC50 (T790M/L858R Ba/F3 cells; [3]): > 750 nM

CN1CCN(c2ccnc(C(=O)N[C@H]3CNc4ccc(F)cc4N(Cc4ccccc4)C3=O)c2)CC1 [Compound I-6, (S)-N-(1-benzyl-8-fluoro-2-oxo-2,3,4,5-tetrahydro-1H-benzo[b][1,4]diazepin-3-yl)-4-(4-methylpiperazin-1-yl)picolinamide]
IC50 [1]: > 750 nM
EC50 (T790M/L858R Ba/F3 cells; [2]): > 750 nM
EC50 (T790M/L858R Ba/F3 cells; [3]): > 750 nM

COc1ccc(C2=CCNCC2)cc1C(=O)N[C@H]1CNc2ccc(F)cc2N(Cc2ccccc2)C1=O [Compound I-7, (S)-N-(1-benzyl-8-fluoro-2-oxo-2,3,4,5-tetrahydro-1H-benzo[b][1,4]diazepin-3-yl)-2-methoxy-5-(1,2,3,6-tetrahydropyridin-4-yl)benzamide]
IC50 [1]: > 750 nM
EC50 (T790M/L858R Ba/F3 cells; [2]): > 750 nM
EC50 (T790M/L858R Ba/F3 cells; [3]): > 750 nM

O=C(N[C@H]1CNc2ccc(F)cc2N(Cc2ccccc2)C1=O)c1ccc(N2CCOCC2)cn1 [Compound I-8, (S)-N-(1-Benzyl-8-fluoro-2-oxo-2,3,4,5-tetrahydro-1H-benzo[b][1,4]diazepin-3-yl)-5-morpholinopicolinamide]
IC50 [1]: > 750 nM
EC50 (T790M/L858R Ba/F3 cells; [2]): > 750 nM
EC50 (T790M/L858R Ba/F3 cells; [3]): > 750 nM

O=C(Cc1ccc(-n2cnnn2)cc1)N[C@H]1CNc2ccc(F)cc2N(Cc2ccccc2)C1=O [Compound I-9, (S)-2-(4-(1H-tetrazol-1-yl)phenyl)-N-(1-benzyl-8-fluoro-2-oxo-2,3,4,5-tetrahydro-1H-benzo[b][1,4]diazepin-3-yl)acetamide]
IC50 [1]: > 750 nM
EC50 (T790M/L858R Ba/F3 cells; [2]): > 750 nM
EC50 (T790M/L858R Ba/F3 cells; [3]): > 750 nM

O=C1[C@@H](N2Cc3ccc(F)cc3C2=O)CNc2ccc(F)cc2N1Cc1ccccc1 [Compound I-10, (S)-1-benzyl-8-fluoro-3-(6-fluoro-1-oxoisoindolin-2-yl)-1,3,4,5-tetrahydro-2H-benzo[b][1,4]diazepin-2-one]
IC50 [1]: < 250 nM
EC50 (T790M/L858R Ba/F3 cells; [2]): > 750 nM
EC50 (T790M/L858R Ba/F3 cells; [3]): < 250 nM

CN1CCN(c2ccc(-c3ccc4c(c3)C(=O)N([C@H]3CNc5ccc(F)cc5N(Cc5ccccc5)C3=O)C4)cc2)CC1 [Compound I-11, (S)-1-benzyl-8-fluoro-3-(6-(4-(4-methylpiperazin-1-yl)phenyl)-1-oxoisoindolin-2-yl)-1,3,4,5-tetrahydro-2H-benzo[b][1,4]diazepin-2-one]
IC50 [1]: < 250 nM
EC50 (T790M/L858R Ba/F3 cells; [2]): > 750 nM
EC50 (T790M/L858R Ba/F3 cells; [3]): < 250 nM

CN1CCN(c2ccc3c(c2)C(=O)N([C@H]2CNc4ccc(F)cc4N(Cc4ccccc4)C2=O)C3)CC1 [Compound I-13, (S)-1-benzyl-8-fluoro-3-(6-(4-methylpiperazin-1-yl)-1-oxoisoindolin-2-yl)-1,3,4,5-tetrahydro-2H-benzo[b][1,4]diazepin-2-one]
IC50 [1]: > 750 nM
EC50 (T790M/L858R Ba/F3 cells; [2]): > 750 nM
EC50 (T790M/L858R Ba/F3 cells; [3]): > 750 nM

CN1CCN(c2ccc(-c3ccc4c(c3)CN([C@H]3CNc5ccc(F)cc5N(Cc5ccccc5)C3=O)C4=O)cc2)CC1 [Compound I-14, (S)-1-benzyl-8-fluoro-3-(5-(4-(4-methylpiperazin-1-yl)phenyl)-1-oxoisoindolin-2-yl)-1,3,4,5-tetrahydro-2H-benzo[b][1,4]diazepin-2-one]
IC50 [1]: < 250 nM
EC50 (T790M/L858R Ba/F3 cells; [2]): > 750 nM
EC50 (T790M/L858R Ba/F3 cells; [3]): < 250 nM
